# Source: US20250296916A1, “BICYCLIC PIPERAZINONES AND THERAPEUTIC USES THEREOF” (Cytokinetics, Inc., priority 2022, published 2025)
# Tested on: rabbit skeletal myofibrils (approximately 90% fast fibers)
# Test: Activation of fast skeletal myofibrils (PUMA coupled-enzyme ATPase assay)
# Assay type: biochemical
# Conditions: concentration at which the compound increased the enzymatic activity by 40%; calcium at pCa25; PM12 buffer pH 6.8
# Experimental: Preparation of fast skeletal myofibrils: Rabbit skeletal myofibrils were prepared based upon the method of Herrmann et al. (Biochem. 32 (28): 7255-7263 (1993). Myofibrils were prepared from rabbit psoas muscle purchased from Pel-Freez Biologicals (Arkansas) within 2 days of ordering, stored on ice. Minced muscle was homogenized in 10 volumes of ice-cold “standard” buffer (50 mM Tris, pH 7.4, 0.1 M KOAc, 5 mM KCl, 2 mM dithiothreitol (DTT), 0.2 mM phenylmethylsulfonyl fluoride (PMSF), 10 μM leupeptin, 5 μM pepstatin, and 0.5 mM sodium azide) containing 5 mM ethylenediaminetetraacetic acid (EDTA) and 0.5% Triton X-100 using an Omni-Macro homogenizer. Myofibrils were recovered by low speed centrifugation (3000 rpm for 10 minutes) and washed 2 times in the Triton X-100 containing buffer to ensure removal of cellular membrane. Following the Triton washes, myofibrils were washed 3 times in “standard” buffer containing 2 mM magnesium acetate. A final wash in assay buffer (12 mM piperazine-1,4-bis(2-ethanesulfonic acid) (PIPES), pH 6.8, 60 mM KCl, 1 mM DTT) was performed and brought to 10% sucrose for flash freezing in liquid nitrogen and storage at −80° C.
# Activation of Fast Skeletal Myofibrils: Fast fiber activators were identified by measuring the enzymatic activity of muscle myofibril preparations using the proprietary PUMA (trademark) (see, e.g., U.S. Pat. Nos. 6,410,254, 6,743,599, 7,202,051, and 7,378,254) assay system. Myofibril preparations consisted of rabbit skeletal muscle (approximately 90% fast fibers) that had been mechanically homogenized and washed with a detergent (Triton X-100) to remove cellular membranes. This preparation retained all of the sarcomeric components in a native conformation and the enzymatic activity was still regulated by calcium. Compounds were tested using a myofibril suspension and a level of calcium sufficient to increase enzymatic activity of the myofibrils to 25% of their maximal rate (termed pCa25). Enzymatic activity was tracked via a pyruvate kinase and lactate dehydrogenase-coupled enzyme system. This assay regenerates myosin-produced ADP into ATP by oxidizing NADH, producing an absorbance change at 340 nm. The buffering system was 12 mM PIPES, 2 mM MgCl2, 1 mM DTT at pH 6.8 (PM12 buffer). […] In Table 3, “Example Compound” refers to the compound labeled with the same number in Table 2.
row,Compound,AC1.4 [µM]
1,"CCC[C@H]1C(=O)Nc2ccccc2N1C(=O)c1ccn2cncc2c1 [Compound 66, (S)-4-(imidazo[1,5-a]pyridine-7-carbonyl)-3-propyl-3,4-dihydroquinoxalin-2(1H)-one]",0.17
2,"CCC[C@H]1C(=O)Nc2ccccc2N1C(=O)c1ccc(F)nc1 [Compound 6, (S)-4-(6-fluoronicotinoyl)-3-propyl-3,4-dihydroquinoxalin-2(1H)-one]",2.19
3,"CCC[C@H]1C(=O)Nc2ccccc2N1C(=O)c1ccc[nH]1 [Compound 9, (S)-3-propyl-4-(1H-pyrrole-2-carbonyl)-3,4-dihydroquinoxalin-2(1H)-one]",0.74
4,"CCC[C@H]1C(=O)Nc2ccccc2N1C(=O)c1ccc(C)nc1 [Compound 3, (S)-4-(6-methylnicotinoyl)-3-propyl-3,4-dihydroquinoxalin-2(1H)-one]",0.77
5,"CCC[C@H]1C(=O)Nc2ccccc2N1C(=O)c1ccc(N(C)C2CC2)nc1 [Compound 37, (S)-4-(6-(cyclopropyl(methyl)amino)nicotinoyl)-3-propyl-3,4-dihydroquinoxalin-2(1H)-one]",0.58
6,"CCC[C@H]1C(=O)Nc2ccccc2N1C(=O)c1ccc(N(C)CC)nc1 [Compound 33, (S)-4-(6-(ethyl(methyl)amino)nicotinoyl)-3-propyl-3,4-dihydroquinoxalin-2(1H)-one]",0.95
7,"CCC[C@H]1C(=O)Nc2ccccc2N1C(=O)c1ccncc1 [Compound 11, (S)-4-isonicotinoyl-3-propyl-3,4-dihydroquinoxalin-2(1H)-one]",0.97
8,"CCC[C@H]1C(=O)Nc2ccccc2N1C(=O)Nc1ccc(OC)cc1 [Compound 55, (S)-N-(4-methoxyphenyl)-3-oxo-2-propyl-3,4-dihydroquinoxaline-1(2H)-carboxamide]",1.88
9,"CCC[C@H]1C(=O)Nc2ccccc2N1C(=O)c1cccnc1 [Compound 12, (S)-4-nicotinoyl-3-propyl-3,4-dihydroquinoxalin-2(1H)-one]",1.55
10,"CCC[C@H]1C(=O)Nc2ccc(Cl)cc2N1C(=O)c1ccc(Cl)nc1 [Compound 2, (S)-6-chloro-4-(6-chloronicotinoyl)-3-propyl-3,4-dihydroquinoxalin-2(1H)-one]",0.71
11,"CC(C)[C@H]1C(=O)Nc2cccnc2N1C(=O)c1ccc(=O)n(C)c1 [Compound 87, (S)-3-isopropyl-4-(1-methyl-6-oxo-1,6-dihydropyridine-3-carbonyl)-3,4-dihydropyrido[2,3-b]pyrazin-2(1H)-one]",2.15
12,"CCC[C@H]1C(=O)Nc2ccccc2N1C(=O)c1conc1C [Compound 14, (S)-4-(3-methylisoxazole-4-carbonyl)-3-propyl-3,4-dihydroquinoxalin-2(1H)-one]",1.66
13,"CCC[C@H]1C(=O)Nc2ccccc2N1C(=O)c1ccc2cncn2c1 [Compound 65, (S)-4-(imidazo[1,5-a]pyridine-6-carbonyl)-3-propyl-3,4-dihydroquinoxalin-2(1H)-one]",0.39
14,"CC[C@H](C)[C@H]1C(=O)Nc2cnccc2N1C(=O)c1ccc(=O)n(C)c1 [Compound 91, (S)-2-((S)-sec-butyl)-1-(1-methyl-6-oxo-1,6-dihydropyridine-3-carbonyl)-1,4-dihydropyrido[3,4-b]pyrazin-3(2H)-one]",0.72
15,"CCC[C@H]1C(=O)Nc2ccccc2N1C(=O)c1cncc(F)c1 [Compound 18, (S)-4-(5-fluoronicotinoyl)-3-propyl-3,4-dihydroquinoxalin-2(1H)-one]",2.97
16,"CCC[C@H]1C(=O)Nc2ccccc2N1C(=O)c1cncc(Cl)c1 [Compound 20, (S)-4-(5-chloronicotinoyl)-3-propyl-3,4-dihydroquinoxalin-2(1H)-one]",1.52
17,"CCC[C@H]1C(=O)Nc2cccc(Br)c2N1C(=O)c1cnn(C)c1 [Compound 69, (S)-5-bromo-4-(1-methyl-1H-pyrazole-4-carbonyl)-3-propyl-3,4-dihydroquinoxalin-2(1H)-one]",1.52
18,"CCC[C@H]1C(=O)Nc2ccccc2N1C(=O)Nc1cccc(F)c1 [Compound 57, (S)-N-(3-fluorophenyl)-3-oxo-2-propyl-3,4-dihydroquinoxaline-1(2H)-carboxamide]",0.24
19,"CCC[C@H]1C(=O)Nc2ccccc2N1C(=O)c1ccc(NC(C)=O)nc1 [Compound 22, (S)-N-(5-(3-oxo-2-propyl-1,2,3,4-tetrahydroquinoxaline-1-carbonyl)pyridin-2-yl)acetamide]",2.76
20,"CC(C)[C@H]1C(=O)Nc2ccccc2N1C(=O)c1ccc(=O)n(C)c1 [Compound 81, (S)-3-isopropyl-4-(1-methyl-6-oxo-1,6-dihydropyridine-3-carbonyl)-3,4-dihydroquinoxalin-2(1H)-one]",0.22
21,"CCC[C@H]1C(=O)Nc2ccccc2N1C(=O)c1ccc(Cl)nc1 [Compound 5, (S)-4-(6-chloronicotinoyl)-3-propyl-3,4-dihydroquinoxalin-2(1H)-one]",0.38
22,"CCC[C@H]1C(=O)Nc2ccccc2N1C(=O)c1cnc2[nH]ccc2c1 [Compound 26, (S)-3-propyl-4-(1H-pyrrolo[2,3-b]pyridine-5-carbonyl)-3,4-dihydroquinoxalin-2(1H)-one]",0.56
23,"CCC[C@H]1C(=O)Nc2ccccc2N1C(=O)Nc1ccccc1OC [Compound 53, (S)-N-(2-methoxyphenyl)-3-oxo-2-propyl-3,4-dihydroquinoxaline-1(2H)-carboxamide]",0.55

# More lines, now with the values ahead:
row,AC1.4 [µM],Compound
1,2.06,"CC[C@H](C)[C@H]1C(=O)Nc2ccccc2N1C(=O)N1CC(CO)C1 [Compound 111, (S)-3-((S)-sec-butyl)-4-(3-(hydroxymethyl)azetidine-1-carbonyl)-3,4-dihydroquinoxalin-2(1H)-one]"
2,1.58,"CCC[C@H]1C(=O)Nc2ccccc2N1C(=O)c1ccc(N2CC(F)C2)nc1 [Compound 38, (S)-4-(6-(3-fluoroazetidin-1-yl)nicotinoyl)-3-propyl-3,4-dihydroquinoxalin-2(1H)-one]"
3,0.07,"CC[C@H](C)[C@H]1C(=O)Nc2ccccc2N1C(=O)c1cn[nH]c1 [Compound 72, (S)-3-((S)-sec-butyl)-4-(1H-pyrazole-4-carbonyl)-3,4-dihydroquinoxalin-2(1H)-one]"
4,0.64,"CC[C@H](C)[C@H]1C(=O)Nc2ccccc2N1C(=O)N[C@H]1C[C@H](O)C1 [Compound 132, (S)-2-((S)-sec-butyl)-N-((1R,3S)-3-hydroxycyclobutyl)-3-oxo-3,4-dihydroquinoxaline-1(2H)-carboxamide]"
5,0.63,"CC[C@H](C)[C@H]1C(=O)Nc2ccccc2N1C(=O)c1cnn(CC(N)=O)c1 [Compound 80, 2-(4-((S)-2-((S)-sec-butyl)-3-oxo-1,2,3,4-tetrahydroquinoxaline-1-carbonyl)-1H-pyrazol-1-yl)acetamide]"
6,0.78,"CCNC(=O)N1c2ccccc2NC(=O)[C@@H]1[C@@H](C)CC [Compound 103, (S)-2-((S)-sec-butyl)-N-ethyl-3-oxo-3,4-dihydroquinoxaline-1(2H)-carboxamide]"
7,2.37,"CCC[C@H]1C(=O)Nc2ccccc2N1C(=O)c1ccc(N2CC(OC)C2)nc1 [Compound 40, (S)-4-(6-(3-methoxyazetidin-1-yl)nicotinoyl)-3-propyl-3,4-dihydroquinoxalin-2(1H)-one]"
8,0.71,"CCC[C@H]1C(=O)Nc2ccccc2N1C(=O)c1cnn(C2CCC2)c1 [Compound 32, (S)-4-(1-cyclobutyl-1H-pyrazole-4-carbonyl)-3-propyl-3,4-dihydroquinoxalin-2(1H)-one]"
9,1.73,"CC[C@H](C)[C@H]1C(=O)Nc2cccnc2N1C(=O)c1cnn(C)c1 [Compound 93, (S)-3-((S)-sec-butyl)-4-(1-methyl-1H-pyrazole-4-carbonyl)-3,4-dihydropyrido[2,3-b]pyrazin-2(1H)-one]"
10,2.15,"CC[C@H](C)[C@H]1C(=O)Nc2ccccc2N1C(=O)N(C)CCO [Compound 131, (S)-2-((S)-sec-butyl)-N-(2-hydroxyethyl)-N-methyl-3-oxo-3,4-dihydroquinoxaline-1(2H)-carboxamide]"
11,0.28,"CC[C@H](C)[C@H]1C(=O)Nc2cnccc2N1C(=O)c1ccccc1 [Compound 97, (S)-1-benzoyl-2-((S)-sec-butyl)-1,4-dihydropyrido[3,4-b]pyrazin-3(2H)-one]"
12,0.48,"CCC[C@H]1C(=O)Nc2ccccc2N1C(=O)NCC1CCCCC1 [Compound 51, (S)-N-(cyclohexylmethyl)-3-oxo-2-propyl-3,4-dihydroquinoxaline-1(2H)-carboxamide]"
